Five compounds from DBAASP can be followed below.

The structures appear in SMILES notation. Values after ≈ are worked out from the molar mass of the structure shown. Values joined by “and” are separate entries in the source; they are usually repeats but may differ in a detail not shown here. Identical values can stand only once. Some results are limits rather than exact numbers.

Among the test systems are Escherichia coli D31; Listeria grayi DSM 20601; Streptococcus sp.; Klebsiella pneumoniae; Acinetobacter baumannii; Escherichia coli; Staphylococcus aureus; Streptococcus pyogenes.
Test in all cases: ≥ marks a high value that may be exact or a test limit, other limits are often not marked, values filed in µg/mL are converted to µM
Experiment [1] deals with Listeria fleischmannii DSM 24998.
Experiment [2] concerns Micrococcus luteus DSM 20030.
Experiment [3] relates to Staphylococcus aureus DSM 2569.
Experiment [4] deals with Listeria monocytogenes DSM 20600.
For experiment [5], the system named is Staphylococcus aureus 1550.
In experiment [6] the test system is Micrococcus luteus ATCC 9341.
The test system of experiment [7] is Staphylococcus aureus ATCC 6538.
For experiment [8], the system named is Candida albicans ATCC 36232.
Experiment [9] concerns Pseudomonas aeruginosa ATCC 9027.
Experiment [10] deals with Escherichia coli ATCC 2592.
For experiment [11], the system named is Staphylococcus aureus KCTC 1621.
In experiment [12] the test system is Staphylococcus aureus CCARM 3089.
The test system of experiment [13] is Pseudomonas aeruginosa KCTC 1637.
Experiment [14] deals with Escherichia coli KCTC 1682.
Experiment [15] concerns Acinetobacter baumannii CCARM 12036.
The test system of experiment [16] is Salmonella typhimurium CCARM 8003.
In experiment [17] the test system is Bacillus subtilis KCTC 3028.
The subject of experiment [18] is Acinetobacter baumannii KCTC 2508.
In experiment [19] the test system is Escherichia coli CCARM 1238.
The subject of experiment [20] is Staphylococcus epidermidis KCTC 1917.
Experiment [21] concerns Escherichia coli CCARM 1229.
Experiment [22] deals with Staphylococcus aureus CCARM 3108.
The subject of experiment [23] is Acinetobacter baumannii CCARM 12035.
Experiment [24] deals with Pseudomonas aeruginosa CCARM 2002.
Experiment [25] has as its system Staphylococcus aureus CCARM 3126.
In experiment [26] the test system is Pseudomonas aeruginosa CCARM 2095.
Experiment [27] has as its system Salmonella typhimurium CCARM 8007.
The subject of experiment [28] is Salmonella typhimurium KCTC 1926.
For experiment [29], the system named is Streptococcus sanguinis ATCC 10556.
In experiment [30] the test system is Streptococcus mutans UA159.
Experiment [31] concerns Streptococcus sobrinus ATCC 6715.
Experiment [32] deals with Escherichia coli ATCC 25922.
For experiment [33], the system named is Bacillus subtilis KCTC 2217.
In experiment [34] the test system is Staphylococcus epidermidis.
Experiment [35] deals with Staphylococcus saprophyticus.
In experiment [36] the test system is Bacillus cereus KCTC 1012.
Experiment [37] deals with Klebsiella pneumoniae KCTC 2208.
Experiment [38] concerns Staphylococcus aureus ATCC 25923.

Turning to `CC[C@H](C)[C@H](NC(=O)CNC(=O)[C@H](CO)NC(=O)[C@H](CC(C)C)NC(=O)[C@H](CC(C)C)NC(=O)[C@H](C)NC(=O)[C@H](CO)NC(=O)[C@H](Cc1ccccc1)NC(=O)[C@@H](N)Cc1ccccc1)C(=O)N[C@@H](CCCCN)C(=O)N[C@@H](CO)C(=O)N[C@@H](CC(C)C)C(=O)N[C@@H](Cc1ccccc1)C(N)=O` [FFSALLSGIKSLF], the MIC in the experiment with Escherichia coli D31 was found to be 8 µM (≈ 11.4 µg/mL); in [1] it was 4 µM (≈ 5.71 µg/mL); in experiment [2], 8 µM (≈ 11.4 µg/mL); in experiment [3] it was 15 µM (≈ 21.4 µg/mL); in the experiment on Listeria grayi DSM 20601, 15 µM (≈ 21.4 µg/mL); in [4] it was 8 µM (≈ 11.4 µg/mL).

With `CC(C)[C@H](NC(=O)[C@H](CCCCN)NC(=O)[C@@H](NC(=O)[C@H](CCCCN)NC(=O)[C@H](Cc1ccccc1)NC(=O)[C@H](CCCCN)NC(=O)[C@@H](NC(=O)[C@H](CCCCN)NC(=O)[C@@H](N)Cc1ccccc1)C(C)C)C(C)C)C(=O)N[C@@H](CCCCN)C(=O)O` [FKVKFKVKVK], the MIC in experiment [5] was 8.8 µM (≈ 11 µg/mL); in [6], 4 µM (≈ 5 µg/mL); in experiment [7], 7.2 µM (≈ 9 µg/mL); in experiment [8], 5 µM and 8 µM; in experiment [9], 4.8 µM (≈ 6 µg/mL); in experiment [10], 10 µM (≈ 12.5 µg/mL).

With `CC[C@H](C)[C@H](NC(=O)[C@H](C)NC(=O)[C@H](CCC(=O)O)NC(=O)[C@H](Cc1cnc[nH]1)NC(=O)[C@@H](NC(=O)[C@@H]1CCCN1C(=O)[C@H](CCC(N)=O)NC(=O)[C@H](Cc1ccccc1)NC(=O)[C@@H](NC(=O)[C@H](CCCCN)NC(=O)[C@H](CCCCN)NC(=O)[C@H](CC(C)C)NC(=O)[C@H](C)NC(=O)[C@H](CC(N)=O)NC(=O)[C@H](CC(C)C)NC(=O)CN)C(C)C)[C@@H](C)CC)C(=O)N[C@@H](CCCCN)C(=O)N[C@@H](CCCCN)C(=O)N[C@H](C(=O)N[C@@H](CC(N)=O)C(=O)N[C@@H](CC(N)=O)C(=O)N[C@@H](Cc1cnc[nH]1)C(=O)N[C@H](C(=O)N[C@@H](CCC(N)=O)C(=O)O)C(C)C)[C@@H](C)CC` [GLNALKKVFQPIHEAIKKINNHVQ], the MIC in experiment [11] was no less than 64 µM; in [12], no less than 64 µM; in [13], 8 µM (≈ 21.9 µg/mL); in experiment [14], 16 µM (≈ 43.8 µg/mL); in experiment [15] it was 16 µM (≈ 43.8 µg/mL); in experiment [16] it was 16 µM (≈ 43.8 µg/mL). For the same compound, the MIC in [17] is no less than 64 µM; in [18], 16 µM (≈ 43.8 µg/mL); in experiment [19] it was 16 µM (≈ 43.8 µg/mL); in [20] it was no less than 64 µM; in experiment [21], no less than 32 µM; in [22], no less than 64 µM. For the same compound, the MIC in experiment [23] is 16 µM (≈ 43.8 µg/mL); in experiment [24], 16 µM (≈ 43.8 µg/mL); in [25] it was no less than 64 µM; in experiment [26], 16 µM (≈ 43.8 µg/mL); in experiment [27] it was 16 µM (≈ 43.8 µg/mL); in [28], 16 µM (≈ 43.8 µg/mL).

Regarding `CC(C)[C@H](NC(=O)[C@H](CCCN=C(N)N)NC(=O)[C@H](C)NC(=O)[C@H](C)NC(=O)[C@H](CCCCN)NC(=O)[C@H](CCCCN)NC(=O)[C@H](Cc1ccccc1)NC(=O)[C@H](Cc1ccccc1)NC(=O)[C@H](CCCN=C(N)N)NC(=O)CNC(=O)[C@H](Cc1c[nH]c2ccccc12)NC(=O)CN)C(=O)NCC(=O)N[C@@H](CCCCN)C(=O)N[C@@H](CCCN=C(N)N)C(=O)N[C@H](C(=O)NCC(=O)N[C@@H](CCCCN)C(=O)O)C(C)C` [GWGRFFKKAARVGKRVGK], the MIC in experiment [29], in experiment [30] and in experiment [31] was no less than 250 µM in each case.

Regarding `CC[C@H](C)[C@H](NC(=O)[C@H](Cc1ccccc1)NC(=O)[C@H](CCCCN)NC(=O)[C@H](CC(C)C)NC(=O)[C@H](C)NC(=O)[C@H](CO)NC(=O)[C@H](CC(C)C)NC(=O)[C@H](Cc1c[nH]c2ccccc12)NC(=O)[C@@H](N)C(C)C)C(=O)NCC(=O)N[C@@H](CCCCN)C(=O)N[C@@H](Cc1cnc[nH]1)C(=O)N[C@@H](CC(C)C)C(=O)N[C@@H](C)C(=O)N[C@@H](CCCCN)C(=O)N[C@@H](Cc1cnc[nH]1)C(=O)N[C@@H](CCC(N)=O)C(=O)N[C@@H](CC(C)C)C(=O)N[C@@H](CO)C(=O)N[C@@H](CCCCN)C(=O)N[C@@H](CC(C)C)C(N)=O` [VWLSALKFIGKHLAKHQLSKL], the MIC in experiment [32] worked out at 1 µM (≈ 2.42 µg/mL); in the experiment on Streptococcus sp., 3.1 µM (≈ 7.49 µg/mL); in experiment [33], 1 µM (≈ 2.42 µg/mL); in [34] it was 3.1 µM (≈ 7.49 µg/mL); in experiment [35] it was 3.1 µM (≈ 7.49 µg/mL); in experiment [36], 2 µM (≈ 4.83 µg/mL). Besides, the MIC in experiment [18] is 2 µM (≈ 4.83 µg/mL); with Klebsiella pneumoniae it was 50 µM (≈ 121 µg/mL); in experiment [37], 2 µM (≈ 4.83 µg/mL); with Acinetobacter baumannii it was 4.42 µM and 12.5 µM; against Escherichia coli, 12.5 µM (≈ 30.2 µg/mL); in [38], 1 µM and > 0.5 µM. In addition, the MIC against Staphylococcus aureus is 3.1 µM and 1.41 µM; against Streptococcus pyogenes it was no less than 50 µM.
